From US20140369933A1, “FLUORINE-18 LABELED HYDROGEN ION PROBES” (The Trustees of The University of Pennsylvania, priority 2011, published 2014)
Read-outs that look alike come from different tables or passages of the source.

What was measured:
[1] = pKa of the indicators by UV-VIS spectroscopy from pH dependence of absorption of basic forms
Protocol: (§1) The values of pKa of the indicators were determined by UV-VIS spectroscopy from the pH dependence of absorption of their basic forms and other spectroscopic investigations of the products were performed by Beckman-Coulter DU 530 spectrophotometer using acetate, phosphate, TRIZMA, and borate buffers for different values of pH. The number of fluorine atoms in the molecule was also determined by comparison of the ratio of sample activity to absorption of the basic forms of indicators.

[2] = UV-VIS absorption maxima of indicator forms; assay type: physicochemical; conditions: for absorption maximum of basic form: basic form of indicator; for absorption maximum of acidic form: acidic form of indicator
Protocol: as §1

[3] = parental compound, intravenous injection, renal excretion; cited from earlier work
[4] = UV-VIS, pH dependence of absorption of basic form, acetate, phosphate, TRIZMA, borate buffers

pKa [1, 4] | absorption maximum of basic form [2] | pKa [1] | absorption maximum of acidic form [2] | Compound | half-life, mostly renal clearance [3]
 | 668 nm | 7.2 |  | O=C1OC(c2cc([18F])c(O)c3ccccc23)(c2cc([18F])c(O)c3ccccc23)c2ccccc21 [difluoronaphtholphthalein] | 
 | 564 nm | 8.7 |  | O=C1OC(c2ccc(O)c([18F])c2)(c2ccc(O)c([18F])c2)c2ccccc21 [difluorophenolphthalein] | 
 | 558 nm | 9.3 |  | O=C1OC(c2ccc(O)cc2)(c2ccc(O)c([18F])c2)c2ccccc21 (stereo not drawn) [monofluorophenolphthalein] | 
 | 653 nm | 7.95 |  | O=C1OC(c2ccc(O)c3ccccc23)(c2ccc(O)c3ccccc23)c2ccccc21 [naphtholphthalein, reference compound] | 
 | 553 nm | 9.75 |  | O=C1OC(c2ccc(O)cc2)(c2ccc(O)cc2)c2ccccc21 [phenolphthalein, reference compound] | 
7.7 | 660 nm |  |  | monofluoronaphtholphthalein | 

The remaining lines, values behind:

Compound | pKa [1, 4] | absorption maximum of basic form [2] | pKa [1] | absorption maximum of acidic form [2] | half-life, mostly renal clearance [3]
Cc1cc(O)ccc1C1(c2ccc(O)cc2C)OS(=O)(=O)c2ccccc21 [CP, cresolsulfonphthalein, reference compound] | 8.3 |  |  |  | 
Cc1cc(C2(c3ccc(O)c(C)c3)OS(=O)(=O)c3ccccc32)ccc1O [Cresol Red, ortho-cresolsulfonphthalein, reference compound] | 8.2 | 572 nm |  |  | 
Cc1cc(C2(c3cc(C)c(O)c([18F])c3)OS(=O)(=O)c3ccccc32)cc([18F])c1O [DFCR, DiFluoroCresol Red] |  | 582 nm | 6.8 |  | 
O=S1(=O)OC(c2ccc(O)c([18F])c2)(c2ccc(O)c([18F])c2)c2ccccc21 [DFPR, difluorophenol red] |  | 570 nm | 6.4 | 428 nm | 
Cc1c(C2(c3cc(C(C)C)c(O)c([18F])c3C)OS(=O)(=O)c3ccccc32)cc(C(C)C)c(O)c1[18F] [DFTB, difluorothymolsulfonphthalein] |  | 605 nm | 7.65 |  | 
Cc1cc(C2(c3cc(C)c(O)c([18F])c3)OS(=O)(=O)c3ccccc32)ccc1O (stereo not drawn) [MFCR, MonoFluoroCresol Red] |  | 576 nm | 7.6 |  | 
O=S1(=O)OC(c2ccc(O)cc2)(c2ccc(O)c([18F])c2)c2ccccc21 (stereo not drawn) [MFPR, monofluorophenol red] |  | 564 nm | 7.3 | 436 nm | 
Cc1cc(O)c(C(C)C)cc1C1(c2cc(C(C)C)c(O)c([18F])c2C)OS(=O)(=O)c2ccccc21 (stereo not drawn) [MFTB, MonoFluoro Thymol Blue] |  | 599 nm | 8.25 |  | 
O=S1(=O)OC(c2ccc(O)cc2)(c2ccc(O)cc2)c2ccccc21 [Phenol Red, phenolsulfonphthalein, reference compound] |  | 558 nm | 7.9 | 433 nm | 20 to 30 min
Cc1cc(O)c([18F])cc1C1(c2cc([18F])c(O)c([18F])c2C)OS(=O)(=O)c2ccccc21 (stereo not drawn) [TFCP, trifluorocresolsulfonphthalein] |  | 592 nm | 6.4 |  | 
O=S1(=O)OC(c2ccc(O)c([18F])c2)(c2cc([18F])c(O)c([18F])c2)c2ccccc21 (stereo not drawn) [TFPR, trifluorophenol red] |  | 572 nm | 5.9 |  | 
Cc1cc(O)c(C(C)C)cc1C1(c2cc(C(C)C)c(O)cc2C)OS(=O)(=O)c2ccccc21 [Thymol Blue, thymolsulfonphthalein, reference compound] | 8.85 | 597 nm |  |  | 
difluorocresolsulfonphthalein [DFCP] |  | 589 nm |  |  | 
monofluorocresolsulfonphthalein [MFCP] |  | 582 nm |  |  | 
trifluorophenol red [TFPR] |  | 572 nm |  |  | 
